From US4305940A, “Benzamides with local anaesthetic and antiarrhythmic activity, salts, and method of preparation thereof and pharmaceutical compositions therefrom” (B.B.R. Boehringer Biochemia Robin S.p.A., priority 1979, dated 1981)
Structures can show the parent of a compound that is named as a salt.

Columns and labels:
[1] = in vivo; details: rat, in vivo, ip; 5 days; hydrochloride salts; range in parentheses; read-out: DL50 i.p.
Text: (§1) The behavior of the animals has then been followed for a period of five days. The DL50 has been determined according to the method of I. T. Litchfield and F. Wilcoxon, (J. Pharmacol. Exper. Ther., 96, 99, 1949). The compound numbers in Table II correspond to the numbers in Table I.

[2] = system: Swiss rats; assay: in vivo; details: lidocaine = 1
Text: as §1

[3] = system: corneal reflux; assay: Surface anaesthesia (corneal reflux, conjunctival sac); details: for Surface anaesthesia DL50/CE50: analogous to therapeutic index, DL50 i.p.; for Surface anaesthesia CE50: concentration in percent achieving 50% of total responses, pH 7 saline, hydrochloride salts; for Surface anaesthesia activity with respect to lidocaine: lidocaine = 1
Method: (§2) The data reported hereinbelow relate in every instance to the hydrochloride salts of the individual compounds.
The surface anaesthesia has been determined in rabbits according to the method of M. R. A. Change and H. Lobstein (J. Pharmacol. Exper. Ther., 82, 203, 1944). The compounds dissolved in physiological saline solution of pH 7 were injected into the conjunctival sac and the corneal reflux was induced with the brush of Frey six times at intervals of five minutes for a total period of 40 minutes.

[4] = system: response to skin puncture; assay: Anaesthesia by infiltration (subcutaneous, back puncture); format: in vivo, guinea pigs; details: for Infiltration anaesthesia DL50/CE50: analogous to therapeutic index, DL50 i.p.; for Infiltration anaesthesia CE50: concentration in percent achieving 50% of total responses, hydrochloride salts; for Infiltration anaesthesia DL50/CE50 relative to lidocaine / Infiltration anaesthesia activity with respect to lidocaine: lidocaine = 1
Method: The anaesthesia by infiltration has been determined in guinea pigs according to the method of E. Bulbring and I. Wajda, (Journal of Pharmacol. Exper. Ther. 85, 78, 1945). In each experiment, four doses of the substance in 0.25 cc of physiological saline solution is injected subcutaneously on the back after removal of hair. After five minutes, each animal is punctured six times at intervals of […].
The test was repeated every five minutes for a period of 30 minutes. The extent of anaesthesia by infiltration was measured quantitatively by determining the sum of the instances in which the animal remained immobile during the thirty minute period on 36 possible blinks.

[5] = system: reflux of contraction of the lower limbs (lumbar plexus); assay: Anaesthesia by conduction (lumbar plexus); format: in vivo, frogs; details: for Conduction anaesthesia DL50/t' / Conduction anaesthesia 1/t'max. (c = 1%) with respect to lidocaine: c = 1%; for Conduction anaesthesia DL50/t': DL50 i.p.; for Conduction anaesthesia 1/t'max. (c = 1%) with respect to lidocaine / Conduction anaesthesia DL50/t' relative to lidocaine: lidocaine = 1
Text: Anaesthesia by conduction has been determined on frogs according to the method of E. Bulbring and I. Wajda (Journal Pharmacol. Exper. Ther., 85, 78, 1945). The compounds dissolved in physiological saline solution are introduced into the cavity obtained by a transversal incision in the abdomen and separating the viscera in order to expose the lumbar plexus. The period of time necessary to eliminate the reflux of contraction of the lower limbs stimulated by immersion of both posterior legs into hydrochloric acid of increasing concentration between 0.05-0.1-0.2 N for a period not in excess of ten seconds, at intervals of one minute is determined. The extent of anaesthesia of conduction has been determined by measuring the period of time required for each compound in three different concentrations, 0.2%-0.5%-1.0% in order to abolish the reflex of contraction with the concentration of hydrochloric acid indicated hereinabove.

[6] = system: aconitine-induced ventricular arrhythmia; assay: Anti-arrhythmic activity, aconitine infusion; format: in vivo, Wistar rats; details: for Aconitine i.v. necessary to induce ventricular arrhythmia: 3 min before aconitine 10 mcg/kg/min
Method: as §2
This determination has been made in Wistar rats, anaesthetized with ethylurethane, (1 g/kg i.p.), according to the method of B. Vargaftig and J. L. Coigner (European Journal Pharmacology, 6, 49, 1969). The compounds dissolved in physiological saline solution, are injected intravenously three minutes prior to the infusion of aconitine, (10 mcg/kg/min.). The extent of anti-arrhythmic activity is determined quantitatively by determining the amount of aconitine necessary to induce ventricular arrhythmia.

Row | SMILES | LD50 at 120 h [1] [mg/kg] | DL50 i.p. relative to lidocaine [2] | Surface anaesthesia DL50/CE50 [3] | Surface anaesthesia CE50 [3] [%] | Surface anaesthesia activity with respect to lidocaine [3] | Infiltration anaesthesia DL50/CE50 [4] | Infiltration anaesthesia CE50 [4] [%] | Infiltration anaesthesia DL50/CE50 relative to lidocaine [4] | Infiltration anaesthesia activity with respect to lidocaine [4] | Conduction anaesthesia DL50/t' [5] | Conduction anaesthesia 1/t'max. (c = 1%) with respect to lidocaine [5] | Conduction anaesthesia DL50/t' relative to lidocaine [5] | also measured
1 | CCN(CC)Cc1ccccc1C(=O)Nc1c(C)cccc1Cl [Compound 13] | 16.3 | 0.11 | 27 | 0.60 | 3.83 | 58 | 0.28 | 0.31 | 2.68 | 16 | 11.1 | 1.23 | Aconitine i.v. necessary to induce ventricular arrhythmia ([6]; 0.6 mg/kg i.v.): 48 ± 6 µg/kg; Aconitine i.v. necessary to induce ventricular arrhythmia ([6]; 1.0 mg/kg i.v.): 65 ± 7 µg/kg; Aconitine i.v. necessary to induce ventricular arrhythmia ([6]; 3.0 mg/kg i.v.): 67 ± 7 µg/kg; Anti-arrhythmic activity compared with lidocaine ([6]; times more active than lidocaine): at least twenty times more active than lidocaine; Anti-arrhythmic activity compared with quinidine ([6]; times more active than quinidine): at least ten times more active than quinidine
2 | Cc1cccc(C)c1NC(=O)c1ccc(CN2CCCC2)cc1 [Compound 6] | 215 | 1.51 | 13 | 16.03 | 0.14 | 48 | 4.50 | 0.25 | 0.16 | 107 | 5.5 | 8.31 | –
3 | CCN(CC)CC(=O)Nc1c(C)cccc1C [Lidocaine hydrochloride, reference compound] | – | – | – | – | – | – | – | – | – | – | – | – | Aconitine i.v. necessary to induce ventricular arrhythmia ([6]; 12.5 mg/kg i.v.): 41 ± 4 µg/kg; Aconitine i.v. necessary to induce ventricular arrhythmia ([6]; 25.0 mg/kg i.v.): 54 ± 5 µg/kg
4 | Cc1cccc(C)c1NC(=O)c1cccc(CN2CCCC2)c1 [Compound 5] | 225 | 1.58 | 9 | 24.12 | 0.09 | 28 | 8.01 | 0.15 | 0.09 | 225 | 11.1 | 17.31 | –
5 | Cc1cccc(C)c1NC(=O)c1ccccc1CN1CCCC1 [Compound 4] | 55 | 0.39 | 30 | 1.85 | 1.24 | 162 | 0.34 | 0.86 | 2.20 | 55 | 11.1 | 4.23 | –
6 | Cc1cccc(C)c1NC(=O)c1cccc(CN2CCCCC2)c1 [Compound 8] | 205 | 1.44 | 73 | 2.82 | 0.82 | 569 | 0.36 | 3.01 | 2.08 | 41 | 2.2 | 3.15 | –
7 | CCN(CC)Cc1cccc(C(=O)Nc2c(C)cccc2C)c1 [Compound 2] | 67 | 0.47 | 163 | 0.41 | 5.60 | 291 | 0.23 | 1.54 | 3.26 | 67 | 11.1 | 5.15 | Aconitine i.v. necessary to induce ventricular arrhythmia ([6]; 1.0 mg/kg i.v.): 43 ± 8 µg/kg; Aconitine i.v. necessary to induce ventricular arrhythmia ([6]; 3.0 mg/kg i.v.): 77 ± 9 µg/kg; Aconitine i.v. necessary to induce ventricular arrhythmia ([6]; 6.0 mg/kg i.v.): 82 ± 9 µg/kg
8 | Cc1cccc(C)c1NC(=O)c1ccc(CN2CCOCC2)cc1 [Compound 12] | 230 | 1.62 | 82 | 2.82 | 0.82 | 102 | 2.25 | 0.54 | 0.33 | 57 | 2.7 | 4.46 | –
9 | Cc1cccc(C)c1NC(=O)c1ccc(CN2CCCCC2)cc1 [Compound 9, 2,6-Dimethylanilide of 4-piperidinomethyl-benzoic acid] | 210 | 1.48 | 109 | 1.92 | 1.20 | 750 | 0.28 | 3.97 | 2.67 | 19 | 1.0 | 1.46 | –
10 | C=C[C@H]1C[N@@]2CC[C@H]1C[C@@H]2[C@@H](O)c1ccnc2ccc(OC)cc12 [Quinidine sulfate, reference compound] | – | – | – | – | – | – | – | – | – | – | – | – | Aconitine i.v. necessary to induce ventricular arrhythmia ([6]; 10.0 mg/kg i.v.): 50 ± 3 µg/kg; Aconitine i.v. necessary to induce ventricular arrhythmia ([6]; 40.0 mg/kg i.v.): 88 ± 11 µg/kg
11 | Cc1cccc(C)c1NC(=O)c1ccccc1CN1CCOCC1 [Compound 10] | 230 | 1.62 | 34 | 6.86 | 0.34 | 98 | 2.34 | 0.52 | 0.32 | 21 | 1.0 | 1.61 | –
12 | Cc1cccc(C)c1NC(=O)c1ccccc1CN1CCCCC1 [Compound 7] | 87.1 | 0.61 | 290 | 0.30 | 7.66 | 414 | 0.21 | 2.19 | 3.57 | 87 | 11.1 | 6.69 | –
13 | Cc1cccc(C)c1NC(=O)c1cccc(CN2CCOCC2)c1 [Compound 11] | 260 | 1.83 | 22 | 11.90 | 0.19 | 273 | 0.95 | 1.44 | 0.79 | 29 | 1.2 | 2.15 | –
